The subject of this experiment is ApoE. In words: apoE secretion by PMA-differentiated THP-1 cells, apoE quantified by ELISA. It is filed as cell-based, human. The conditions noted are these: 3 days; for percent change in apoE secretion versus control at 25 µM / percent change in apoE secretion versus control at 50 µM / percent change in apoE secretion versus control at 100 µM: Homo sapiens, THP-1, 72 h. The source says:
The bisphosphonate compounds of the invention can modulate (increase or decrease) apoE levels in plasma and in tissues. The activities of the compounds can be determined in an in vitro cell assay comprising determining the modulatory effect of the test compound on the secretion of apoE by an apoE secreting cell line (e.g., a monocyte-macrophage cell line such as the THP-1 cell line, a liver derived cell line such as the HepG2 cell line, an intestinal derived cell line such as the CaCo2 cell line or a brain derived cell line such as the astrocytoma CCF-STTG1 cell line).
THP-1 cell line (ATCC TIB-202) are cultured in RPMI 1640 (with 2 mM of L-glutamine and 2 g/l of glucose, Invitrogen) supplemented with 2 g/l of sodium hydrogen carbonate (Fluka), 10 U/ml of penicillin, 10 μg/ml of streptomycin (Penicillin-Streptomycin, Invitrogen), 20 μM of 2-mercaptoethanol (Fluka) and 10% FCS (Amimed). Cells are incubated at 37° C. and 5% CO2.
Cells are seeded in 24 well tissue culture plates (Falcon), 2×10^5 cells in 500 μl of culture medium per well or 6 well plates for RT-PCR purpose, 1×10^6 cells in 2.5 ml of medium. PMA (Phorbol 12-myristate 13-acetate, Alexis), (stock in DMSO (Fluka) at 1 mg/ml) and other compounds are diluted in ethanol and added to the cells at an ethanol final concentration not exceeding 1%. Same volume of ethanol is added in controls. Plates are incubated for 3 days at 37° C. and 5% CO2 to allow cell differentiation and apoE secretion.
Medium contained in the wells is harvested and centrifuged 5 min at 1200 rpm. Supernatants are store at −20° C. until apoE quantification. The cell pellets are resuspended in PBS and counted with a ZI Coulter Counter. After a wash with PBS, adherent cells in the well bottoms are detached with trypsin-EDTA solution 10× (Invitrogen) diluted in PBS. The reaction is stopped with the addition of culture medium and the detached cells are counted.
ApoE was quantified by ELISA. 96 well plates (Costar) are coated with 5% of gelatine (from porcine skin, Fluka) in carbonate-bicarbonate buffer (Sigma) for 1 hour at 37° C. After removing the coating solution, 100 μl of THP-1 supernatant are added per well, diluted 5 times in buffer (PBS, 1% Top-Block (Juro), 0.1% Tween 20 (Fluka)). The incubation last 1 hour at 37° C., then the wells are washed 3 times with 200 μl of buffer. Plates are incubated for 1 hour at 37° C. with continuous stirring with the primary antibody (goat anti-human apoE IgG, Calbiochem) at a 10000-time dilution in buffer, 100 μl per well. After 3 washes, plates are incubated with the secondary antibody (rabbit anti-goat-IgG peroxidase conjugated, Sigma) diluted 5000 times, 100 μl per well, at 37° C. with shaking. Then the wells are washed 5 more times and the detection is achieved by adding 100 μl per well of o-phenylenediamine dihydrochloride (Sigma) and incubated for 15-20 minutes with shaking at room temperature. When the appropriated colour is reached, the reaction is stopped by adding 50 μl per well of 3 M sulfuric acid (Fluka) with shaking for 1 minute at room temperature. The absorbance is read at 492 nm versus 620 nm with a microplate photometer (Anthos Reader 2001).

SMILES strings stand for the structures.

Take `CCOP(=O)(OCC)C(c1ccc(OCCN2C(=O)CCC2=O)cc1)P(=O)(OCC)OCC` [Tetraethyl 1-[4-(2-N-succinimido-ethoxy)-phenyl]-methylidene-1,1-bisphosphonate]: the “% ApoE Change” value (compound 25 μM, 1.25 nM PMA) is reported as −51%; the “% ApoE Change” value (compound 25 μM, 2.5 nM PMA) came out at 30%; the “% ApoE Change” value (compound 50 μM, 1.25 nM PMA) amounted to 53%; the “% ApoE Change” value (compound 50 μM, 2.5 nM PMA) came to 70%; the “% ApoE Change” value (compound 100 μM, 1.25 nM PMA) came out at 123%; the “% ApoE Change” value (compound 100 μM, 2.5 nM PMA) is reported as 132%.

Take `CCOP(=O)(OCC)C(c1ccc(OCc2ccc(C#N)cc2)cc1)P(=O)(OCC)OCC` [Tetraethyl 1-[4-(4-cyano-benzyloxy)-phenyl]-methylidene-1,1-bisphosphonate]: the “% ApoE Change” value runs as follows: (compound 25 μM, 1.25 nM PMA) 91%; (compound 25 μM, 2.5 nM PMA) 134%; (compound 50 μM, 1.25 nM PMA) 192%; (compound 50 μM, 2.5 nM PMA) 225%; (compound 100 μM, 1.25 nM PMA) 447%; (compound 100 μM, 2.5 nM PMA) 328%.

Take `CCOP(=O)(OCC)C(c1ccc(OCCCc2cccnc2)cc1)P(=O)(OCC)OCC` [Tetraethyl 1-[4-(3-pyridin-3-yl-propoxy)-phenyl]-methylidene-1,1-bisphosphonate]: the “% ApoE Change” value is 63% (compound 25 μM, 1.25 nM PMA); 136% (compound 25 μM, 2.5 nM PMA); 103% (compound 50 μM, 1.25 nM PMA); 188% (compound 50 μM, 2.5 nM PMA); 337% (compound 100 μM, 1.25 nM PMA); 331% (compound 100 μM, 2.5 nM PMA).

Turning to `CCOP(=O)(OCC)C(c1ccc(OCCCN2C(=O)c3ccccc3C2=O)cc1)P(=O)(OCC)OCC` [Tetraethyl 1-[4-(3-N-phthalimido-propoxy)-phenyl]-methylidene-1,1-bisphosphonate], the percent change in apoE secretion versus control at 25 µM (compound 25 μM, 2.5 nM PMA) came out at 352%. Moreover, the percent change in apoE secretion versus control at 50 µM (compound 50 μM, 2.5 nM PMA) was 405%. For the setting “compound 100 μM, 2.5 nM PMA”, this compound registered a percent change in apoE secretion versus control at 100 µM of 482%.

For the compound `CCOc1ccc(C(CP(=O)(OCC)OCC)P(=O)(OCC)OCC)cc1` (stereo not drawn) [Tetraethyl 1-(4-ethoxyphenyl)-ethylidene-1,2-bisphosphonate], the “% ApoE Change” value reads like this: (compound 25 μM, 1.25 nM PMA) −16%; (compound 25 μM, 2.5 nM PMA) 5%; (compound 50 μM, 1.25 nM PMA) −12%; (compound 50 μM, 2.5 nM PMA) 4%; (compound 100 μM, 1.25 nM PMA) 36%; (compound 100 μM, 2.5 nM PMA) 54%.

On to `CC(C)OP(=O)(OC(C)C)C(c1ccc(O)cc1)P(=O)(OC(C)C)OC(C)C` [Tetraisopropyl 1-(4-hydroxy-phenyl)-methylidene-1,1-bisphosphonate], for which the percent change in apoE secretion versus control at 25 µM by setting is: (compound 25 μM, 1.25 nM PMA) 290%; (compound 25 μM, 2.5 nM PMA) 52%. Further, the percent change in apoE secretion versus control at 50 µM is, setting by setting: (compound 50 μM, 1.25 nM PMA) 399%; (compound 50 μM, 2.5 nM PMA) 35%. Moreover, the percent change in apoE secretion versus control at 100 µM came out at 488% (compound 100 μM, 1.25 nM PMA) and 73% (compound 100 μM, 2.5 nM PMA).

Turning to `CCOP(=O)(OCC)C(c1ccc(OCCN(CCC#N)c2ccccc2)cc1)P(=O)(OCC)OCC` [Tetraethyl 1-(4-{2-[(2-cyano-ethyl)-phenyl-amino]-ethoxy}-phenyl)-methylidene-1,1-bisphosphonate], the percent change in apoE secretion versus control at 25 µM (compound 25 μM, 1.25 nM PMA) is 276% and the percent change in apoE secretion versus control at 25 µM (compound 25 μM, 2.5 nM PMA) was determined as 209%. The percent change in apoE secretion versus control at 50 µM (compound 50 μM, 1.25 nM PMA) turned out to be 678% and the percent change in apoE secretion versus control at 50 µM (compound 50 μM, 2.5 nM PMA) was 311%. The percent change in apoE secretion versus control at 100 µM (compound 100 μM, 2.5 nM PMA) is 499%.

Turning to `CCOP(=O)(OCC)C(c1ccc(OCCN2CCCC2)cc1)P(=O)(OCC)OCC` [Tetraethyl 1-[4-(2-N-pyrrolidino-ethoxy)-phenyl]-methylidene-1,1-bisphosphonate], the “% ApoE Change” value is reported as −5% (compound 25 μM, 1.25 nM PMA); 2% (compound 25 μM, 2.5 nM PMA); 2% (compound 50 μM, 1.25 nM PMA); 7% (compound 50 μM, 2.5 nM PMA); 56% (compound 100 μM, 1.25 nM PMA); 32% (compound 100 μM, 2.5 nM PMA).

For the compound `CCOP(=O)(OCC)C(c1ccc(OCCCN(C)c2ccccn2)cc1)P(=O)(OCC)OCC` [Tetraethyl 1-{4-[3-(methyl-pyridin-2-yl-amino)-propoxy]-phenyl}-methylidene-1,1-bisphosphonate], the percent change in apoE secretion versus control at 25 µM by setting is: (compound 25 μM, 1.25 nM PMA) 375%; (compound 25 μM, 2.5 nM PMA) 557%.

With `COP(=O)(OC)C(c1ccc(O)cc1)P(=O)(OC)OC` [Tetramethyl 1-(4-hydroxy-phenyl)methylidene-1,1-bisphosphonate], the “% ApoE Change” value is −7% (compound 25 μM, 1.25 nM PMA); −17% (compound 25 μM, 2.5 nM PMA); −27% (compound 50 μM, 1.25 nM PMA); −25% (compound 50 μM, 2.5 nM PMA); −19% (compound 100 μM, 1.25 nM PMA); −10% (compound 100 μM, 2.5 nM PMA).

Regarding `CCOP(=O)(CC(c1cccc(OCCc2ccccn2)c1)P(=O)(OCC)OCC)OCC` (stereo not drawn) [Tetraethyl 1-[3-(2-pyridin-2-yl-ethoxy)-phenyl]-ethylidene-1,2-bisphosphonate], the percent change in apoE secretion versus control at 25 µM reads like this: (compound 25 μM, 1.25 nM PMA) 31%; (compound 25 μM, 2.5 nM PMA) 110%. In addition, the percent change in apoE secretion versus control at 50 µM was determined as 51% (compound 50 μM, 1.25 nM PMA) and 124% (compound 50 μM, 2.5 nM PMA). Also, the percent change in apoE secretion versus control at 100 µM (compound 100 μM, 1.25 nM PMA) turned out to be 274% and the percent change in apoE secretion versus control at 100 µM (compound 100 μM, 2.5 nM PMA) is 206%.

For `CCOP(=O)(OCC)C(c1ccc(OCCN2CCCCC2)cc1)P(=O)(OCC)OCC` [Tetraethyl 1-[4-(2-N-piperidino-ethoxy)-phenyl]-methylidene-1,1-bisphosphonate], the “% ApoE Change” value (compound 25 μM, 1.25 nM PMA) is recorded as −22%; the “% ApoE Change” value (compound 25 μM, 2.5 nM PMA) was −2%; the “% ApoE Change” value (compound 50 μM, 1.25 nM PMA) stood at 6%; the “% ApoE Change” value (compound 50 μM, 2.5 nM PMA) stood at 0%; the “% ApoE Change” value (compound 100 μM, 1.25 nM PMA) is 65%; the “% ApoE Change” value (compound 100 μM, 2.5 nM PMA) was 33%.

Take `CCOP(=O)(OCC)C(c1ccc(OCc2ccccn2)cc1)P(=O)(OCC)OCC` [Tetraethyl 1-[4-(pyridin-2-yl-methoxy)-phenyl]-methylidene-1,1-bisphosphonate]: the “% ApoE Change” value (compound 25 μM, 1.25 nM PMA) came out at 16%; the “% ApoE Change” value (compound 25 μM, 2.5 nM PMA) amounted to 96%; the “% ApoE Change” value (compound 50 μM, 1.25 nM PMA) is listed as 146%; the “% ApoE Change” value (compound 50 μM, 2.5 nM PMA) came to 192%; the “% ApoE Change” value (compound 100 μM, 1.25 nM PMA) is 443%; the “% ApoE Change” value (compound 100 μM, 2.5 nM PMA) turned out to be 574%.

On to `CCOP(=O)(OCC)C(c1ccc(OCCc2ccccn2)cc1)P(=O)(OCC)OCC` [Tetraethyl 1-[4-(2-pyridin-2-yl-ethoxy)-phenyl]-methylidene-1,1-bisphosphonate], for which the “% ApoE Change” value (compound 25 μM, 1.25 nM PMA) was 57%; the “% ApoE Change” value (compound 25 μM, 2.5 nM PMA) was found to be 38%; the “% ApoE Change” value (compound 50 μM, 1.25 nM PMA) is listed as 133%; the “% ApoE Change” value (compound 50 μM, 2.5 nM PMA) came to 73%; the “% ApoE Change” value (compound 100 μM, 1.25 nM PMA) worked out at 363%; the “% ApoE Change” value (compound 100 μM, 2.5 nM PMA) came to 145%.

Regarding `CCOP(=O)(CC(c1ccc(OCc2ccccn2)cc1)P(=O)(OCC)OCC)OCC` (stereo not drawn) [Tetraethyl 1-[4-(pyridin-2-yl-methoxy)-phenyl]-ethylidene-1,2-bisphosphonate], the “% ApoE Change” value is, setting by setting: (compound 25 μM, 2.5 nM PMA) 152%; (compound 50 μM, 2.5 nM PMA) 158%; (compound 100 μM, 2.5 nM PMA) 289%.

In turn, `CCOP(=O)(CC(c1ccc(OCCCN2C(=O)c3ccccc3C2=O)cc1)P(=O)(OCC)OCC)OCC` (stereo not drawn) [Tetraethyl 1-[4-(3-N-phthalimidopropoxy)phenyl]-ethylidene-1,2-bisphosphonate] showed a percent change in apoE secretion versus control at 25 µM (compound 25 μM, 2.5 nM PMA) of 644%. Where the note is “compound 50 μM, 2.5 nM PMA”, the percent change in apoE secretion versus control at 50 µM was 942%.

The values above are taken from patent US20060205692A1, “1,1-and 1,2-Bisphosphonates as apoliprotein e modulators” (priority 2002, published 2006).
